Data: patent publication US20110250290A1, “DISINFECTANT COMPOSITIONS” (priority 2006, published 2011)

Experiments:
[1] = tested on: Pseudomonas syringae pv. phaseolicola HB-9 biofilm; experiment: PspHB-9 biofilm susceptibility to Oxysilver and copper sulfate
[2] = tested on: Pseudomonas syringae pv. phaseolicola HB-9 planktonic; experiment: PspHB-9 planktonic susceptibility to Oxysilver and copper sulfate

## O=S(=O)([O-])[O-].[Cu+2] [Copper sulfate]
[1]; 1250 ppm
  Bacteria/biofilm growth PspHB-9 Biofilm, cell counts: 5.15 log10
[1]; 2900 ppm
  Bacteria/biofilm growth PspHB-9 Biofilm, cell counts: 0 log10
[1]; 4600 ppm
  Bacteria/biofilm growth PspHB-9 Biofilm, cell counts: 0 log10
[1]; planktonic and biofilm PspHB-9
  concentration needed to be effective: at least 11460 ppm
[2]; 1250 ppm
  Bacteria growth PspHB-9 Planktonic, cell counts: 2.95 log10
[2]; 2900 ppm
  Bacteria growth PspHB-9 Planktonic, cell counts: 0 log10
[2]; 4600 ppm
  Bacteria growth PspHB-9 Planktonic, cell counts: 0 log10
